# Reference: US9981956B2, “Small molecule inhibitors of fibrosis” (THE CALIFORNIA INSTITUTE FOR BIOMEDICAL RESEARCH, priority 2013, dated 2018)
# Read-outs that look alike come from different tables or passages of the source.
# Key:
# Format in all cases: cell-based
# [1] = system: Candida albicans (ATCC 10231); assay: Candida albicans anti-fungal MIC potency determination
# Procedure: The wild type Candida albicans (ATCC 10231) was used and Fluconazole, amphotericin B, itraconazole and terbinafine were purchased from Sigma and used as positive controls.
# The highest assay concentration for all test compounds and fluconazole was 100 μM. Fluconazole was also tested at the highest concentration of 64 μg/ml, and amphotercin B and terbinafine at 16 and 64 μg/ml. The test compounds were in DMSO stock solution at a concentration of 10 mM. Two stock solutions in DMSO were prepared for fluconazole at 10 mM and 6.4 mg/ml. Amphotericin B and terbinafine stock solutions in DMSO were prepared at 1.6 and 6.4 mg/ml.
# Serial dilution of 100× stock solutions: 4 μl of stock solution was added into 196 μl of RPMI1640 (MOPS buffered and free of HEPES and sodium bicarbonate) in the first well of a row of a sterile u-bottom 96-well plate. The rest of the wells was filled with 100 μl RPMI1640. The 2-fold serial dilution was made sequentially by transferring 100 μl solution to the next well and mixing by pipetting, until 11th well. The extra 100 μl in 11th well was discarded. Therefore, the compound wells contained 100 μl of 2× of testing concentrations of drugs in RPMI1640. The 12th well was filled with only 100 μl RPMI1640.
# C. albicans 3147 (ATCC 10231) glycerol frozen stock was streaked on Sabouraud dextrose agar (SDA). The plate was incubated at 35° C. ambient atmosphere for 20 h. Single colonies were suspended into sterile saline until turbidity reached 0.1 (1-5×10^6 CFU/ml) using a Siemens turbidity meter. This suspension was diluted 50× in RPMI1640 in a 15 ml conical, and then it was further diluted 20× in RPMI1640 in a 50 ml conical. This gave 1-5×10^3 CFU/ml suspension and was used as inoculum. The cell density in inoculum was plate-counted to be 4.94×10^3 CFU/ml.
# The plates were incubated at 35° C. in ambient atmosphere. The photos were taken at 24 h and 48 h. The MIC end points for fluconazole and amphotericin B were read according to the M27-A3 protocol (Reference Method for Broth Dilution Antifungal Susceptibility Testing of Yeasts; Approved Standard-Third Edition, M27-A3 standard published Jan. 1, 2008 by Clinical and Laboratory Standards Institute). The MIC for compounds for test cmpds and terbinafine (not mentioned in M27-A3 protcol) were read as if they were azoles.
# PXR = target: T1, PXR (Homo sapiens, UniProt O75469); assay: PXR (Cyp 3A4) activation assay in DPX2 cells; details: compounds tested at 10, 1 and 0.1 μM, read-out: PXR activation (fold induction compared to Rifampicin)
# T1 construct: expressed in transfected cells; host or cells: DPX2 cells
# T1 sequence (O75469 1-434): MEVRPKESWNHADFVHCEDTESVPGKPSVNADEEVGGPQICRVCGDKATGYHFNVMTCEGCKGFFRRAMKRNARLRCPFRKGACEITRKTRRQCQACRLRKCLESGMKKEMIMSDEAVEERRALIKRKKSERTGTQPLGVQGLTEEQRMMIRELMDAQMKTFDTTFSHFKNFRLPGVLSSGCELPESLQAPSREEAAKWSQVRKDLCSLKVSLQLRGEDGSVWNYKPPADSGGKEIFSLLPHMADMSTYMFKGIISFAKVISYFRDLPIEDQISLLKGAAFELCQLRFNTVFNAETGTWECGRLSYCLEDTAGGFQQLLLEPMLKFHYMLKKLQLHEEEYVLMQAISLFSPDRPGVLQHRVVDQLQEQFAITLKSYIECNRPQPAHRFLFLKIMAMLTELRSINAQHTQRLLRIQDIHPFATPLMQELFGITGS
# Procedure: CYP3A4 metabolism was evaluated by using P450-Glo™ CYP3A4 Assay with Luciferin-IPA as the substrate of CYP3A4 and represented as RLU (Relative Luminescence Units). PXR activation was evaluated by using a luciferase detection reagent, ONE-Glo™ and represented as RLU. The luminescence light intensity was directly proportional to the extent of PXR activation and accompanying gene transcription in the DPX2 cells. Compounds were tested at 10, 1, and 0.1 μM in the assay. Fold of induction=(RLU/RFU of compound treated sample)/(RLU/RFU of vehicle treated sample), RFU was the signal of cell viability. RLU was the signal of CYP3A metabolism and PXR activation. 0.1% DMSO was used as vehicle. Cell viability was detected by using CellTiter-Fluor™ and represented as RFU (Relative Fluorescence Units).
# Activation potency was defined as negative, weak, moderate and strong. Negative, weak, moderate and strong activators are those that give <15%, <40%, <69% and >70%, respectively, of the response produced by 10 μM RIF at 10 μM.
# [2] = system: fibroblast to myofibroblast transdifferentiation (primary human lung fibroblasts and primary rodent HSCs); assay: High content imaging and western based assay of fibroblast to myofibroblast transdifferentiation (α-SMA); details: graded, TGF-β induced fibroblast to myofibroblast transdifferentiation
# [3] = ATCC10231, 24 h, read-out: C. Albicans MIC90 at 24 h
# [4] = ATCC10231, 48 h, read-out: C. Albicans MIC90 at 48 h
"MIC90 [1, 3]","MIC90 [1, 4]",fold induction (PXR),Compound,EC50 [2]
> 100 µM,> 100 µM,~1,CCC(C)n1ncn(-c2ccc(N3CCN(c4ccc(OC[C@@H]5CO[C@@](Cn6nccn6)(c6ccc(Cl)cc6Cl)O5)cc4)CC3)cc2)c1=O (stereo partly drawn) [Compound 15],0.5 to 5 µM
> 100 µM,> 100 µM,~1.1,CCC(C)n1ncn(-c2ccc(N3CCN(c4ccc(OC[C@@H]5CO[C@@](Cc6ccnnc6)(c6ccc(Cl)cc6Cl)O5)cc4)CC3)cc2)c1=O (stereo partly drawn) [Compound 22],< 0.5 µM
> 100 µM,> 100 µM,~1.5,CCC(C)n1ncn(-c2ccc(N3CCN(c4ccc(OC[C@@H]5CO[C@@](Cn6nccn6)(c6ccccc6)O5)cc4)CC3)cc2)c1=O (stereo partly drawn) [Compound 42],< 0.5 µM
